One experiment has as its system hangover headache. Put plainly: Example 54: analgesic effect on hangover headache, topical. The class given is in vivo, human. Particulars: 1% (w/v) in WEP442, topical. From the text:
A subject with a “splitting” headache the morning after heavy drinking at a party the night before, topically applied to the entire head and neck a composition containing 1% (w/v) of N-Ac-Tyr-Pro-Phe-Phe-NHNH2 (SEQ ID NO: 31) in WEP442. […] They then drove their car approximately 90 miles to their residence.

Another experiment has as its system sinus headaches. Put plainly: Example 55: analgesic effect on headache due to sinusitis, topical. The class given is in vivo, human. The conditions noted are these: 1% (w/v) in WEP442, topical. From the text: A subject, suffered from chronic recurrent “sinus headaches.” At the time of one such headache, they topically applied to the entire forehead and, with their eyes closed, to the sites overlying the frontal and maxillary sinuses a composition containing 1% (w/v) of N-Ac-Tyr-Pro-Phe-Phe-NHNH2 (SEQ ID NO: 31) in WEP442.

The next experiment relates to thermal burn of finger. Put plainly: Example 56: analgesic effect on finger pain caused by thermal burn, topical. The class given is in vivo, human. The conditions noted are these: 1% (w/v) in WEP442, topical. From the text:
A subject, suffered a thermal burn of their right fourth finger from touching a hot kitchen plate. […] Six days later, the burned site appeared normal.

The next experiment relates to migraine. The experiment can be described thus: Example 80: analgesic effect on pain and nausea from migraine headache, topical. The class given is in vivo, human. Particulars: 0.5% (w/v) in WEP442, topical at onset of symptoms. From the text: A subject with a history of recurrent attacks of migraine, was provided a solution composition containing 0.5% (w/v) of N-Pg-Tyr-Pro-Phe-Phe-NH2 (SEQ ID NO: 44) in WEP442 and a solution composition containing 0.5% (w/v) of N-Ac-Tyr-Pro-Phe-Phe-NHNH2 (SEQ ID NO: 31) in WEP442. […] Sensations of nausea that might have lingered went away after several minutes following a second topical application.

For experiment [1], the system named is psoriatic arthritis pain, fingers and wrists. The experiment can be described thus: Example 48: comparative analgesic efficacy, psoriatic arthritis pain of fingers and wrists, topical. The class given is in vivo, human. The conditions noted are these: 1% (w/v) in WEP442, topical. From the text: […] Treatment of the subject over the years included methotrexate and other antimetabolites, and in recent years drugs known as biologic medications. While these agents have provided intervals of relief, none has provided a lasting benefit. Over the past decade, painful arthritis developed in both wrists and in numerous joints of the fingers. Four related tetrapeptide derivatives, 1% (w/v) solution compositions in vehicle WEP442, one at a time, were topically applied to the fingers and wrists of both hands. […] Efficacy was rated by the subject as 4+. • (B) N-Ac-Tyr-Pro-Phe-Phe-NHNH2 (SEQ ID NO: 31) provided slow relief of pain, i.e. within about 10 minutes. […] Analgesic efficacy was judged by the subject to be 0 to 1+.

Experiment [2] deals with arthritic pain of wrists and fingers (psoriasis). Put plainly: Example 61: comparative analgesic efficacy in psoriatic arthritis of wrists and fingers, topical. The class given is in vivo, human. Particulars: 1% (w/v) in WEP442, topical. An excerpt:
A subject with severe generalized psoriasis compared the topical efficacy of solution compositions of nine (9) tetrapeptide derivatives on arthritic pain of their wrists and fingers. All of the solution compositions contained 1% (w/v) of tetrapeptide derivative in WEP442.

The subject of experiment [3] is rat rostral ventrolateral medulla neurons. Particulars: in vitro; cited from earlier work.
Experiment [4] relates to sore site on the left lower gum. Put plainly: Example 38: analgesic effect on gum pain due to pressure from denture. The class given is in vivo, human. How it is done: […]. […] The dentures were removed and re-inserted 15 hours later. Within about 1 hour, soreness of the same area began to return and application of the above solution composition was repeated in the same way as the day before. All soreness again was alleviated within 5-10 seconds. The relief lasted again for about 7 hours.

For experiment [5], the system named is extruded intervertebral cervical disc, pain and paresthesia. Put plainly: Example 40: painful extruded intervertebral cervical disc, subcutaneous injection. The class given is in vivo, human. From the text:
Previous therapy undergone by the subject included epidural injections of corticosteroids. Within the past several months, the pain had intensified, along with a substantial degree of paresthesia and numbness of the fingers of both hands. […] Relief of pain and paresthesia lasted for 1-2 days. Thereafter, the pain and paresthesia returned.
About 1 week later, pain and paresthesia were negligible, but returned within 2-3 weeks. Such injections were repeated 3 times at approximately monthly intervals with the same beneficial results. However, pain and paresthesia were not cured, and recurring within 2-3 weeks.

For experiment [6], the system named is pain caused by needling or pinching. Put plainly: Example 91: experimentally induced skin pain, intradermal and subcutaneous injection. The class given is in vivo, human. The conditions noted are these: 0.1% sterile aqueous solution pH 6.2, intradermally 0.1 ml and subcutaneously 0.2 ml.
The subject of the next experiment is adjuvant arthritis. Particulars: intraperitoneal injection; cited from earlier work.
For experiment [7] the following is noted: rats injected at 5-10 μg; cited from earlier work.
The test system of experiment [8] is extruded intervertebral cervical disc, pain and paresthesia. The experiment can be described thus: Example 40: painful extruded intervertebral cervical disc, topical. The class given is in vivo, human. An excerpt:
Previous therapy undergone by the subject included epidural injections of corticosteroids.

A further experiment has as its target mu receptors (Mus musculus, UniProt P42866). Particulars: mouse brain; cited from earlier work.
The conditions of experiment [9]: rats injected with 18 pmol; cited from earlier work.
[10] abbreviates: 0.5% (w/v) in WEP442, gauze under plastic film.

No end group written: not given here. *: point of attachment. NHNH2 = NN*

mu receptors, sequence (P42866 whole entry): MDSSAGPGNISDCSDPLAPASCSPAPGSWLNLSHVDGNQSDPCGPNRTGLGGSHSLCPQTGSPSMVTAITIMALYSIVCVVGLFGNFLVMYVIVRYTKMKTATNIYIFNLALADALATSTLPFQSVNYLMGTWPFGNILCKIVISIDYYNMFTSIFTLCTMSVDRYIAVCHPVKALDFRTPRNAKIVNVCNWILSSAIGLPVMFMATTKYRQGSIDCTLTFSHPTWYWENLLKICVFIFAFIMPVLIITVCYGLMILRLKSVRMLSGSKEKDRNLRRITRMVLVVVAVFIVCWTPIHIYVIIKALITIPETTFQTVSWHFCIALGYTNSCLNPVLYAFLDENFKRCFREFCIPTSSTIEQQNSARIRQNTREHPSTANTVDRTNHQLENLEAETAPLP

On to “N-Ac-Tyr-Pro-Phe-Phe-NHNH2 (Ac-YPFF-NHNH2; SMILES CC(=O)N[C@@H](Cc1ccc(O)cc1)C(=O)N1CCC[C@H]1C(=O)N[C@@H](Cc1ccccc1)C(=O)N[C@@H](Cc1ccccc1)C(=O)NN)”, for which the pain relief entry in the experiment on hangover headache is listed as “the headache ceased”; in the experiment with sinus headaches it was “headache completely subsided”; in the experiment on thermal burn of finger it was “completely relieved the pain almost instantly”; in the experiment with migraine, “complete relief of pain”; in [1], “Almost complete relief of pain”. In addition, the “time to pain relief” value was 1 to 2 min in the experiment on hangover headache, ≤ 10 min with sinus headaches and ≤ 10 min in [1]. Moreover, the “blister at burned site” value in the experiment with thermal burn of finger is “did not developed a blister”.

For “N-Ac-Tyr-Pro-Phe-Phe-OEt (Ac-YPFF-OEt; SMILES CCOC(=O)[C@H](Cc1ccccc1)NC(=O)[C@H](Cc1ccccc1)NC(=O)[C@@H]1CCCN1C(=O)[C@H](Cc1ccc(O)cc1)NC(C)=O)”, the “efficacy by clinical evaluation” value in experiment [2] was determined as 0.

As to Tyr-Pro-Phe-Phe-NH2 (YPFF-NH2), the “spontaneous discharge of the medullary neurons” value in experiment [3] is on record as “significantly inhibited”. In [4] (1% (w/v) in WEP442), the duration of relief entry is “about 7 hours” and the time to relief was in the range of 5 to 10 s. For the same substance, in experiment [4] (1% (w/v) in WEP442, applied to the sore gum area), the relief of soreness entry is given as “all soreness was gone”. Moreover, in experiment [5] (3 mg/ml sterile aqueous solution, subcutaneous, next day), the pain and paresthesia entry is on record as “diminished substantially”. The “time to return of pain and paresthesia” value in experiment [5] (3 mg/ml subcutaneous) is recorded as 2-3 weeks. In addition, the pain and paresthesia result in [5] (3 mg/ml subcutaneous, repeated after 24 hours, about 1 week later) is “negligible”. Moreover, the “effect on pain caused by needling or pinching of injected sites” value in experiment [6] is listed as “did not prevent pain”. Moreover, the “effect on edema in rat paw assay” value in the experiment with adjuvant arthritis is listed as “did not have any effect that significantly differed from the effect of the control group”. For the same substance, in [7], the analgesic effects entry is “exhibited analgesic effects”. For the same substance, in experiment [8] (setting [10]), the “duration of relief of pain and paresthesia” value lay in the range of 1 to 2 days; the “time to relief of symptoms” value turned out to be 8 h. Besides, the relief of symptoms entry in experiment [8] (0.5% (w/v) in WEP442, saturated gauze under plastic film over cervical vertebra 7) is on record as “complete relief of symptoms”. Also, the “affinity for mu receptors” value in the experiment with mu receptors is “very high affinity”.

Take “Tyr-Pro-Trp-Phe-NH2 [reference compound]”: the “spontaneous discharge of the medullary neurons” value in [3] is on record as “significantly inhibited”. Also, the “desensitization of the motor response” value in experiment [9] is “did not induce rapid desensitization of the motor response”. Moreover, the “affinity for mu receptors” value with mu receptors is “very high affinity”.

The values are drawn from patent publication US20190248834A1, “ENDOMORPHIN-2, TETRAPEPTIDE DERIVATIVES THEREOF, AND USES THEREOF” (priority 2016, published 2019).
